Experiment [1] relates to T1D DE cells (T1D iPS cell-derived). The experiment can be described thus: Insulin and glucagon flow cytometry at end of Stage 5, T1D cultures. The format is cell-based, human. Particulars: for number of glucagon-expressing cells: T1D cultures, concentration-dependent. As to the method: (§1) After completing 4 days of differentiation in DE differentiation media, the cells were treated with fresh media supplemented with 5-aza-DC. The 5-aza-DC was treated for 18 hours, which spanned the last day of DE differentiation, before being washed with warm DMEM F/12 three times and harvested as described in the next section for initiating 3D differentiation into pancreatic precursor cells.
For assessment of expression of pancreatic hormones insulin and glucagon, matrigel-seeded differentiating cell clusters on differentiation D27 (end of stage 5) were recovered by treatment with Dispase (Catalog Number: 354235, BD Biosciences, San Jose, Calif.) for 5 minutes at 37° C., followed by gentle suspension to further break down the matrigel. After washing with 1×PBS and centrifugation, the cell clusters were incubated with TrypLE Express for 5-10 minutes at room temperature. Following gentle resuspension and centrifugation, the cells were permeabilized via saponin using the BD Cytofix/Cytoperm Kit (Catalog Number: 554714, BD Biosciences, San Jose, Calif.). For insulin staining, the cells were incubated with anti-inulin-PE for 30 minutes in the dark at room temperature before being washed and resuspended in 1×PBS for flow cytometric analysis. For glucagon staining, the cells were incubated with purified rabbit anti-human glucagon for 30 minutes in the dark at room temperature before being washed and incubated with anti-rabbit APC (1:100) for an additional 30 minutes in the dark at room temperature. Subsequently, the cells were washed and resuspended in 1×PBS for flow cytometric analysis.
(In general: In flow cytometry, cells or beads pass a laser one at a time.)

The subject of experiment [2] is T1D iPS cell-derived cell clusters. Description: Cluster morphology and dithizone staining of T1D IPC cultures. The format is cell-based, human. As to the method:
Freshly prepared dithizone solution was used for all experiments. First, 20 mg of dithizone (Catalog Number: D5130, Sigma-Aldrich, St. Louis, Mo.) was added to 0.6 mL of 95% ethanol in a 15 mL conical tube. Subsequently, 1-5 drops of ammonium hydroxide was added and the resulting orange stock mixture was vortexed thoroughly until completely dissolved. 0.3 mL of this stock solution was dispensed in 99.7 mL of 1×PBS and the pH was adjusted to 7.4 with 1N HCl. Islets (supplied by the IIDP) or picked IPC clusters were added to separate wells each containing 200 μL of the final dithizone solution in a 96 well plate. The cell clusters were incubated for 2-5 minutes before images were captured using a standard light microscope (Nikon Eclipse, TS100) attached to a color camera.
A full differentiation of T1D iPS cells into IPCs was initiated, demethylating the DE cells on day 4 for 18 hours before transferring them onto matrigel. A striking impact of the demethylation treatment in the T1D cultures was observed. Typically, T1D iPS cells gave rise to a disorganized mix of cysts and spheroids, with a dominant presence of hollow cysts. […] Next, these cell clusters were stained with dithizone, which when positive points to the presence of insulin Shiroi et al., 2002).

Experiment [3] concerns ND iPS cells. Description: Pdx1 flow cytometry, ND cultures. Particulars: 10 nM for 18 h on day 4. The format is cell-based, human. On the procedure:
(§2) FIGS. 18A-18B. […] To address whether demethylation enhances the yield of Pdx1+ cells and insulin+ cells from ND iPS cells, in parallel, differentiations of ND iPS cells, treated with or without 10 nM 5-aza-DC for 18 h on day 4 of differentiation (n=2) were established. Controls for staining were iPS cells (negative) and βTC3 mouse insulinoma cells (positive). […] Thus, demethylation enhances the differentiation into IPCs of specifically T1D iPS cells but not ND iPS cells. This is likely because there are specific gene loci on T1D cells that are aberrantly methylated, which is corrected by transient 5-aza-DC treatment.
(§3) For assessment of expression of pancreatic transcription factors (Pdx1, Nkx6.1 and NeuroD1), matrigel-seeded differentiating cell clusters on differentiation D15 (end of stage 4) were recovered by treatment with Dispase (Catalog Number: 354235, BD Biosciences, San Jose, Calif.) for 5 minutes at 37° C., followed by gentle suspension to further break down the matrigel. After washing with 1×PBS and centrifugation, the cell clusters were incubated with TrypLE Express for 5-10 minutes at room temperature. Following gentle resuspension and centrifugation, the cells were permeabilized using methanol as described below. […]

Experiment [4] has as its system ND iPS cells. The experiment can be described thus: Insulin flow cytometry at end of Stage 5, ND cultures. It counts as cell-based, human. As to the method:
as §2
For assessment of expression of pancreatic hormones insulin and glucagon, matrigel-seeded differentiating cell clusters on differentiation D27 (end of stage 5) were recovered by treatment with Dispase (Catalog Number: 354235, BD Biosciences, San Jose, Calif.) for 5 minutes at 37° C., followed by gentle suspension to further break down the matrigel. After washing with 1×PBS and centrifugation, the cell clusters were incubated with TrypLE Express for 5-10 minutes at room temperature. Following gentle resuspension and centrifugation, the cells were permeabilized via saponin using the BD Cytofix/Cytoperm Kit (Catalog Number: 554714, BD Biosciences, San Jose, Calif.). […]

Experiment [5] deals with 5-methylcytosine content of gDNA of T1D iPS cells. Description: Dot blot for 5-methylcytosine on gDNA. The format is cell-based, human. As to the method: FIGS. 14A-14B. Selection of the optimal dose of 5-aza-DC to demethylate iPS cells while ensuring maximal cell viability. FIG. 14A) Every cell type has a unique tolerance to 5-aza-DC, which is toxic at high doses. In order to identify an optimal dose of 5-aza-DC that would maintain integrity of the cells while demethylating effectively, a dose screen experiment was conducted on T1D iPS cells (n=2), observing the quality of the colonies and degree of cell death over 4 days after 18 hours of treatment with various doses of 5-aza-DC. […] FIG. 14B) To confirm that those low doses would still demethylate cells, a dot blot for 5-methylcytosine was performed on gDNA isolated from untreated T1D iPS cells or iPS cells that were treated with 1 nM or 10 nM 5-aza-DC (n=3).
To detect the effectiveness of demethylation treatment, dot blots were performed on genomic DNA (gDNA) samples isolated from demethylated and nondemethylated control iPS cells to determine levels of 5-methylcytosine (5-MC). gDNA was isolated using the DNeasy Blood & Tissue Kit (Qiagen, Valencia, Calif.). […] Finally, HRP signal was detected with a 5 minute incubation at room temperature in Amersham ECL Prime solution (Catalog Number: RPN2232, GE Healthcare, Pittsburgh, Pa.) and processed via X-ray films.

Experiment [6] has as its system T1D DE cells (T1D iPS cell-derived). The experiment can be described thus: Pdx1 flow cytometry at end of Stage 4, T1D cultures. Particulars: T1D DE cells demethylated on day 4 for 18 h. The format is cell-based, human. On the procedure: as §1
as §3, with “below. The cells were fixed in 2% paraformaldehyde in PBS for 10 minutes at 37° C., followed by centrifugation, and resuspension of the vortexed cells in 1 mL of chilled Perm Buffer III (Catalog Number: 558050, BD Biosciences, San Jose, Calif.). The cells were incubated for 30 minutes on ice in sealed tubes.” for “below.”

Experiment [7] has as its system T1D iPS cells differentiating into DE cells. The experiment can be described thus: Definitive endoderm marker flow cytometry after demethylation (CXCR4, Sox17, PDGFR-α). The format is cell-based, human.
Description: FIG. 15. Demethylation on DO of differentiation arrests cells in a CXCR4+ PDGFRα+ Sox17− mesendodermal state. In order to identify the optimal time point at which demethylation should be initiated, two parallel differentiations of T1D iPS cells into DE cells were established. In one differentiation, the culture was exposed to 5-aza-DC on day 0 (which is the day that DE differentiation is initiated), whereas the other culture was demethylated at day 4 of differentiation (which is the last day of DE culture). At the end of the differentiations, the efficacy of DE cell differentiation was determined by studying the expression of CXCR4, PDGFR-α, and Sox17. Undifferentiated iPS cells (red plot) served as a negative control for all of these cell markers. […] In contrast, demethylation of the cells on day 4 (blue plot) generated >90% CXCR4+ Sox17+ PDGFR-α− cells, representing true DE cells. […] Besides, after formation of the DE, the cells have a higher proliferative rate. Thus, temporal control of the demethylation treatment ensures enhanced differentiation outcomes.
as §1
For assessment of DE differentiation efficiency, cells from D5 of differentiation (end of stage 1) were incubated at room temperature for 2-5 minutes with TrypLE Express (Invitrogen, Grand Island, N.Y.), dissociated into a single cell suspension, filtered through a 70 μm mesh and washed with 1×PBS (Invitrogen, Grand Island, N.Y.) before being distributed into FACS tubes. […]

The test system of experiment [8] is Human iPS cell-derived IPCs. The experiment can be described thus: Mitochondria stress test (oxygen consumption rate). The format is cell-based. The following applies: low glucose (2.8 mM). As to the method:
Oxygen consumption rate (OCR) was measured by using an intact-cell respirometer designed for adherent cells (Seahorse Bioscience, North Billerica, Mass.). Human iPS cell-derived IPCs were grown in special 24-well plates designed for respirometer analyses. OCR was determined in assay medium consisting of medium M199 lacking sodium bicarbonate for 60 minutes. Before analysis, IPCs within individual wells were exposed to either, low glucose (2.8 mM), high glucose (20 mM), high glucose (20 mM)+Nifedipine. […] The FCCP concentration used in these studies was determined by titration with differing amounts of the uncoupler by using the least amount required for maximal uncoupling in cells unexposed to MTQAs. OCR (pmol per minute per microgram of DNA) was determined as the average number recorded during time periods defined as intervals between the above sequential injections. Basal OCR was determined as respiration before injection of any compounds minus non-mitochondrial OCR. OCRATP was determined as basal OCR minus OCR after oligomycin injection. OCR accountable by the proton leak was calculated as OCR in the presence of oligomycin minus non-mitochondrial OCR. Maximal uncoupled respiration was calculated as OCR after FCCP minus non-mitochondrial OCR. […] ECAR was quantified simply as the recorded acidification rate during the respiratory conditions delineated above.

[9] abbreviates: demethylation on day 4 of differentiation.

Molecules are shown by their SMILES. Entries after “also recorded” stand apart in the source; their conditions may differ.

As for `Nc1ncn([C@H]2C[C@H](O)[C@@H](CO)O2)c(=O)n1` [5-aza-DC, 5-aza-2′-deoxycytidine], the insulin-expressing cells in experiment [1] (T1D cultures treated with 5-Aza-DC, n=5) is 56.7-59.4%. Further, the “number of glucagon-expressing cells” value is “nearly all the glucagon secreting cells are gone” in experiment [1] and “drastic decline” in experiment [1] (listed as 5-Aza-DC). In experiment [1] (T1D, 10 nM, repeated experiments), the “insulin+ cells, highest measured in some cultures” value is recorded as ≤ 65%. In addition, the cells expressing insulin in experiment [1] (T1D, dose of 10 nM) turned out to be 56%. The “augmentation of yield of IPCs versus untreated” value in experiment [1] (T1D-1 DE cells, pooled experiments, untreated n=3, demethylated n=5) was ~4 fold. Besides, in experiment [2] (T1D DE cells treated on day 4, both doses (1 nM, 10 nM)), the cluster morphology result is reported as “promoted the formation of compact cell clusters that uniquely resembled human islets; also recorded: promotes the formation of compact clusters”. Also, in experiment [2] (T1D cultures treated with 5-aza-DC), the “dithizone staining of clusters” value was “strong red color”. The “yield of Pdx1+ cells, treated versus untreated” value in experiment [3] was “not significantly different”. Further, in experiment [4] (10 nM for 18 h on day 4), the “yield of insulin-expressing cells, treated versus untreated” value is “equivalent yield”. In addition, the “yield of Insulin+ cells at the end of Stage 5” value in experiment [4] (unchanged after treatment) is given as 25%. The “demethylation (5-methylcytosine dot blot)” value in experiment [5] (1 nM) and in experiment [5] (10 nM) was “effectively demethylate” each time. The “Pdx1+ cells at the end of Stage 4” value in experiment [6] is on record as > 95%. Further, the “marker phenotype of resulting cells” value is listed as “arrested in the immature CXCR4^+ PDGFRα^+ Sox17^− mesendodermal state; also recorded: CXCR4+ PDGFR-α+ Sox17−” in experiment [7] (demethylation on day 0 of differentiation) and “pure population of CXCR4^+ Sox17^+ PDGFRα^− DE cells” in experiment [7] (setting [9]). In experiment [7] (setting [9]), the “CXCR4+ Sox17+ PDGFR-α− cells” value was > 90%.
In the case of `CC(C)Cn1c(=O)n(C)c(=O)c2[nH]cnc21` [IBMX, 3-isobutyl-1-methylxanthine], the “effect on oxygen consumption” value in experiment [8] is listed as “could not be increased; also recorded: could not be elevated”.
